According to US20220143079A1, “ORAL ADMINISTRATION OF SODIUM CHLORIDE TO PREVENT COMPLICATIONS ASSOCIATED WITH BOWEL CLEANSING WITH STIMULANT LAXATIVES” (SEAFORD PHARMACEUTICALS INC., priority 2019, published 2022):

System: colon of patients scheduled for colonoscopy
Assay: Quality of colon cleaning assessed by Boston Scale at colonoscopy
Assay type: in vivo
Conditions: within the claimed regimen, result in words
Procedure: A prospective, open-label study involving four patients scheduled for their regular colonoscopy exam was conducted (Canadian Phase Onward Inc., Toronto, Ontario. CA). […] In addition to the standard instructions not to eat food and to drink only clear liquids, the selected patients were instructed to do the following on the day before the colonoscopy was to be performed: 1. at 10:00 AM orally taking three bisacodyl pills (Dulcolax®, Boehringer Ingelheim, Ingelheim am Rhein, Germany) with water (chewing or crushing the pills was prohibited); 2. at 3:00 PM dissolving the contents of a first sachet containing sodium picosulfate/magnesium oxide/citric acid combination ([…]®, Recordati S.p.A, Milan, Italy) with cold water and ingesting the solution after carefully stirring the solution to insure that the sodium picosulfate/magnesium oxide/citric acid combination was dissolved completely; […] […] Upon arrival at the clinic on the day of the colonoscopy, the patient's weight was recorded and blood pressure was taken and recorded and an out-patient colonoscopy was performed on each patient (North York Endoscopy Centre Inc., Toronto, Ontario, CA). The quality of the colon cleaning was assessed using the Boston Scale which is a well-established way of identifying the degree of colon cleanliness.

CC(=O)Oc1ccc(C(c2ccc(OC(C)=O)cc2)c2ccccn2)cc1 [bisacodyl, ρ,ρ-diacetoxy-diphenyl-2-pyridylmethane]
observed cleansing effect of the regimen component: initial expulsion of the bulk of the fecal matter
